The conditions of the data set: Liquid, Concentric cylinders viscometry.

Numbers after ± are expanded uncertainties.

The viscosity is the internal friction of a fluid under shear. Turning to `CCCCCCCCCCCCCC[P+](CCCCCC)(CCCCCC)CCCCCC.FC(F)(F)C(F)(F)[P-](F)(F)(F)(C(F)(F)C(F)(F)F)C(F)(F)C(F)(F)F`, the viscosity is 413 ± 32 mPa·s (298.15 K, 10000 kPa); 913 ± 75 mPa·s (298.15 K, 50000 kPa); 1417 ± 120 mPa·s (298.15 K, 75000 kPa); 189 ± 15 mPa·s (313.15 K, 10000 kPa); 401 ± 33 mPa·s (313.15 K, 50000 kPa); 615 ± 52 mPa·s (313.15 K, 75000 kPa). Also, the viscosity by setting is: (323.15 K, 10000 kPa) 114 ± 9 mPa·s; (323.15 K, 50000 kPa) 223 ± 17 mPa·s; (323.15 K, 75000 kPa) 364 ± 29 mPa·s; (333.15 K, 10000 kPa) 78.1 ± 5.7 mPa·s; (333.15 K, 50000 kPa) 159 ± 12 mPa·s; (333.15 K, 75000 kPa) 232 ± 18 mPa·s. In addition, the viscosity worked out at 53.5 ± 3.9 mPa·s (343.15 K, 10000 kPa); 112 ± 8 mPa·s (343.15 K, 50000 kPa); 162 ± 12 mPa·s (343.15 K, 75000 kPa); 37.9 ± 2.8 mPa·s (353.15 K, 10000 kPa); 76.3 ± 5.6 mPa·s (353.15 K, 50000 kPa); 109 ± 8 mPa·s (353.15 K, 75000 kPa).
Take `CCCCCCOS(=O)(=O)[O-].CC[n+]1ccn(C)c1` [3-ethyl-1-methyl-1H-imidazolium hexyl sulfate]: the viscosity is reported as 354 ± 27 mPa·s (298.15 K, 10000 kPa); 571 ± 45 mPa·s (298.15 K, 50000 kPa); 737 ± 59 mPa·s (298.15 K, 75000 kPa); 154 ± 12 mPa·s (313.15 K, 10000 kPa); 238 ± 19 mPa·s (313.15 K, 50000 kPa); 304 ± 25 mPa·s (313.15 K, 75000 kPa). Moreover, the viscosity reads like this: (323.15 K, 10000 kPa) 94 ± 7 mPa·s; (323.15 K, 50000 kPa) 142 ± 11 mPa·s; (323.15 K, 75000 kPa) 186 ± 14 mPa·s; (333.15 K, 10000 kPa) 63.8 ± 4.6 mPa·s; (333.15 K, 50000 kPa) 94.8 ± 6.9 mPa·s; (333.15 K, 75000 kPa) 120 ± 9 mPa·s. The viscosity turned out to be 44.5 ± 3.2 mPa·s (343.15 K, 10000 kPa); 65.9 ± 4.8 mPa·s (343.15 K, 50000 kPa); 82.1 ± 6 mPa·s (343.15 K, 75000 kPa); 31.4 ± 2.3 mPa·s (353.15 K, 10000 kPa); 46 ± 3.4 mPa·s (353.15 K, 50000 kPa); 56.9 ± 4.2 mPa·s (353.15 K, 75000 kPa).

The values above are taken from the NIST ThermoML archive (doi:10.1021/acs.jced.7b00181).
